Series [1] can be described thus: Solubility test: amount dissolved in 10 g of solvent, visually inspected. Type of series: physicochemical. The protocol:
Benzo[c]thiophene-1,3-dihydro-2-oxide was dissolved a little at a time in 10 g of a solvent, and the amount of dissolution was visually inspected.
1,3-dihydroisothianaphthene was dissolved a little at a time in 10 g of a solvent.

Series [2] is described as follows: Stability test after dissolution: visual observation of the solution. Type of series: physicochemical. The following applies: in the air. As to the method:
1.0 g of benzo[c]thiophene-1,3-dihydro-2-oxide and 0.25 g of p-toluenesulfonic acid-hydrate (pTSA, molar ratio: 5/1) were dissolved in 11.0 g of each solvent (solid content: 10 mass %) in composition as shown in Table 3 in the air. The solution was visually observed immediately (early period), 24 hours, and one week after the dissolution.
1.0 g of 1,3-dihydroisothianaphthene and 0.28 g of p-toluenesulfonic acid-hydrate (pTSA, molar ratio: 5/1) were dissolved in 11.3 g of each solvent (solid content: 10 mass %) in composition as shown in Table 4 in the air. The solution was visually observed immediately (early period), 24 hours, and one week after the dissolution.
A part of the prepared aqueous solution was delivered by drops onto a glass plate, followed by heating and drying at 120° C. for 1 hour. The generated solid was black. The generation of polyisothianaphthene was confirmed from the measurement of the UV spectrum obtained by adding the product to water.
A part of the prepared solution was delivered by drops onto a glass plate, followed by heating and drying at 120° C. for 1 hour. The generated solid was black. The generation of polyisothianaphthene was confirmed from the measurement of the UV spectrum obtained by adding the product to water.

Setting [3] is: 4° C., DMSO, pTSA (molar ratio 5/1), solid content 10 mass %.
[4] abbreviates: 25° C., DMSO, pTSA (molar ratio 5/1), solid content 10 mass %.
Where [5] appears, read: 25° C., EtOH, pTSA (molar ratio 5/1), solid content 10 mass %.
The mark [6] stands for this setting: 25° C., solvent None, catalyst None.

For `c1ccc2c(c1)CSC2` [Comparative Example 1, 1,3-dihydroisothianaphthene], the Dissolution amount entry in series [1] (solvent: Dimethyl formamide) is “Soluble”; in series [1] (solvent: Dimethyl sulfoxide) it was “Soluble”; in series [1] (solvent: Ethanol) it was “Soluble”; in series [1] (solvent: Ethylene glycol) it was “Insoluble”; in series [1] (solvent: Isopropanol) it was “Soluble”; in series [1] (solvent: Methanol), “Slightly soluble”. Moreover, in series [1] (solvent: Water), the Dissolution amount result is listed as “Insoluble”. In addition, the “Visual observation After 1 week” value in series [2] (setting [3]) was “Pale yellow”; in series [2] (setting [4]) it was “Deep blue”; in series [2] (setting [5]), “Deep blue”; in series [2] (setting [6]), “Pale brown”. Also, the “Visual observation After 24 hours” value is on record as “Pale yellow” in series [2] (setting [3]), “Pale brown” in series [2] (setting [4]), “Brownish red” in series [2] (setting [5]) and “Pale yellow” in series [2] (setting [6]).

Regarding `[O-][S+]1Cc2ccccc2C1` [Example 1, benzo[c]thiophene-1,3-dihydro-2-oxide], the Dissolution amount entry in series [1] (solvent: Dimethyl formamide), in series [1] (solvent: Dimethyl sulfoxide), in series [1] (solvent: Ethanol), in series [1] (solvent: Ethylene glycol), in series [1] (solvent: Isopropanol) and in series [1] (solvent: Methanol) was “Soluble” throughout. The Dissolution amount result in series [1] (solvent: Water) is reported as “Soluble”.

The record behind these values is patent publication US11136432B2, “Method for producing polyisothianaphthene-based electroconductive polymer” (SHOWA DENKO K.K., priority 2016, dated 2021).
